# Results from the NIST ThermoML archive (doi:10.1016/j.jct.2009.01.012).
# Numbers after ± are expanded uncertainties.
# Columns and labels:
# [1] = 101.33 kPa, Liquid, Vibrating tube method
# [2] = refractive index (Na D-line) (dimensionless); conditions: 101.33 kPa, Liquid, Standard Abbe refractometry
SMILES,mass density ([1]; 293.15 K) [kg/m3],mass density ([1]; 298.15 K) [kg/m3],mass density ([1]; 313.15 K) [kg/m3],mass density ([1]; 333.15 K) [kg/m3],refractive index ([2]; 293.15 K),refractive index ([2]; 298.15 K),refractive index ([2]; 313.15 K),refractive index ([2]; 333.15 K)
CCCCCCCCCCn1cc[n+](C)c1.O=S(=O)([N-]S(=O)(=O)C(F)(F)F)C(F)(F)F,1282.8 ± 2,1278.3 ± 2,1265.3 ± 2,1248.2 ± 2,1.43658 ± 0.00072,1.43557 ± 0.00076,1.43055 ± 0.00076,1.42452 ± 0.00076
CCCCCCCCCCCCCC[P+](CCCCCC)(CCCCCC)CCCCCC.O=S(=O)([O-])C(F)(F)F,985.6 ± 2,982.3 ± 2,972.5 ± 2,959.6 ± 2,1.45967 ± 0.0008,1.45766 ± 0.00075,1.45365 ± 0.00076,1.44662 ± 0.00078
CCCCCCCCCCCCn1cc[n+](C)c1.O=S(=O)([N-]S(=O)(=O)C(F)(F)F)C(F)(F)F,1249 ± 2,1244.7 ± 2,1231.8 ± 2,1215.1 ± 2,1.43958 ± 0.0008,1.43758 ± 0.00075,1.43356 ± 0.00075,1.42754 ± 0.00076
CCCCn1cc[n+](C)c1.O=S(=O)([O-])C(F)(F)F [1-butyl-3-methylimidazolium trifluoromethanesulfonate],1303.5 ± 2,1299.5 ± 2,1287.7 ± 2,1272.1 ± 2,1.43758 ± 0.00072,1.43657 ± 0.00076,1.43155 ± 0.00076,1.42552 ± 0.00076
CCCCCCCCn1cc[n+](C)c1.O=S(=O)([N-]S(=O)(=O)C(F)(F)F)C(F)(F)F,1323.4 ± 2.1,1318.9 ± 2.1,1305.5 ± 2.1,1288 ± 2,1.43457 ± 0.0008,1.43256 ± 0.00075,1.42854 ± 0.00075,1.42251 ± 0.00076
CCCCn1cc[n+](C)c1.F[B-](F)(F)F [1-butyl-3-methylimidazolium tetrafluoroborate],1202.9 ± 2,1199.4 ± 2,1188.7 ± 2,1174.6 ± 2,1.42251 ± 0.00072,1.4215 ± 0.00074,1.41748 ± 0.00074,1.41246 ± 0.00074
CCCCCC[n+]1ccn(C)c1.O=S(=O)([N-]S(=O)(=O)C(F)(F)F)C(F)(F)F,1375.5 ± 2.1,1371 ± 2.1,1357.2 ± 2.1,1339.1 ± 2.1,1.43155 ± 0.0008,1.42954 ± 0.00075,1.42552 ± 0.00074,1.4205 ± 0.00074
CCCCn1cc[n+](C)c1.COS(=O)(=O)[O-] [1-butyl-3-methylimidazolium methyl sulfate],1214.7 ± 2,1211.3 ± 2,1201.5 ± 2,1188.4 ± 2,1.47876 ± 0.00072,1.47775 ± 0.00072,1.47473 ± 0.00073,1.46971 ± 0.00074
CCCCCCCCCCCCCC[P+](CCCCCC)(CCCCCC)CCCCCC.O=S(=O)([N-]S(=O)(=O)C(F)(F)F)C(F)(F)F,1069.1 ± 2,1065.4 ± 2,1054.5 ± 2,1039.9 ± 2,1.45164 ± 0.0008,1.44963 ± 0.00075,1.44561 ± 0.00076,1.43858 ± 0.00078
CCCCCCCC[n+]1ccn(C)c1.F[P-](F)(F)(F)(F)F [1-octyl-3-methylimidazolium hexafluorophosphate],1237.8 ± 2,1234 ± 2,1222.4 ± 2,1207.5 ± 2,1.42452 ± 0.00072,1.42351 ± 0.00074,1.41949 ± 0.00075,1.41347 ± 0.00076
CCCCn1cc[n+](C)c1.F[P-](F)(F)(F)(F)F [1-butyl-3-methylimidazolium hexafluorophosphate],1367.9 ± 2.1,1363.7 ± 2.1,1351.3 ± 2.1,1334.9 ± 2.1,1.41045 ± 0.0008,1.40844 ± 0.00073,1.40543 ± 0.00073,1.4004 ± 0.00074
CCCC[n+]1ccn(C)c1.O=S(=O)([N-]S(=O)(=O)C(F)(F)F)C(F)(F)F,1440.8 ± 2.1,1436 ± 2.1,1421.6 ± 2.1,1402.6 ± 2.1,1.42853 ± 0.0008,1.42653 ± 0.00075,1.42251 ± 0.00075,1.41648 ± 0.00076
CC(=O)[O-].CCCCCCCCCCCCCC[P+](CCCCCC)(CCCCCC)CCCCCC [trihexyl(tetradecyl)phosphonium acetate],894.5 ± 2.1,891.3 ± 2.1,882.3 ± 2.1,870.4 ± 2.1,1.48377 ± 0.00087,1.48176 ± 0.00085,1.47674 ± 0.00084,1.47072 ± 0.00083
CCCCCCCCCCCCCCn1cc[n+](C)c1.O=S(=O)([N-]S(=O)(=O)C(F)(F)F)C(F)(F)F,–,–,1200.6 ± 2,1184 ± 2,–,–,1.43456 ± 0.00076,1.42854 ± 0.00076
CC(=O)[O-].CCCCn1cc[n+](C)c1 [1-butyl-3-methylimidazolium acetate],1056.2 ± 2.2,1053.2 ± 2.2,1044 ± 2.2,1032.2 ± 2.2,1.49481 ± 0.0008,1.49381 ± 0.00083,1.48879 ± 0.00083,1.48377 ± 0.00081
CCCCCCn1cc[n+](C)c1.F[P-](F)(F)(F)(F)F [1-hexyl-3-methylimidazolium hexafluorophosphate],1296.4 ± 2,1292.4 ± 2,1280.4 ± 2,1264.9 ± 2,1.41849 ± 0.0008,1.41648 ± 0.00073,1.41346 ± 0.00073,1.40844 ± 0.00074
CCn1cc[n+](C)c1.O=S(=O)([N-]S(=O)(=O)C(F)(F)F)C(F)(F)F,1519.7 ± 2.1,1514.7 ± 2.1,1499.6 ± 2.1,1479.7 ± 2.1,1.42351 ± 0.00072,1.42251 ± 0.00074,1.41849 ± 0.00074,1.41346 ± 0.00074
